Data as given in patent publication US20080318803A1, “Biomarkers for Monitoring Impdh Pathway Inhibition” (VERTEX PHARMACEUTICALS, priority 2004, published 2008).
Like-named read-outs stand apart in the source and are kept apart here.

What was measured:
PBMCs PHA-T cell = experiment: PBMC proliferation assay (PHA-stimulated T cells); type: cell-based, human; conditions: for IC50: Homo sapiens, PBMC
Text: Monitoring gene expression patterns offers an alternative approach for optimizing the therapeutic window as compared with the traditional method of measuring drug concentrations in blood and correlating either the AUC or Cmax levels with a clinical response. Towards that end, the inventors have comprehensively evaluated several genes affected by treatment with two distinct IMPDH inhibitors in vitro, as potential readouts for assessing their biological activity. The genes that are listed in Tables I through VIII are particularly useful in the present invention. These genes were identified using the specific methods as follows: Most cell culture reagents, unless specified otherwise, were obtained from Gibco-BRL or JRH Biologicals. Complete RPMI was prepared by adding up to a final of 10% heat-inactivated fetal bovine serum (FBS), 55 μM β mercaptoethanol, 50 units/mL penicillin with 50 μg/mL streptomycin, 300 μg/ml L-glutamine and 10 mM HEPES pH 7.5 to RPMI1640. Stock solutions of Phyto-hemagglutinin (PHA-P, Difco) was prepared in FBS-free RPMI and stored at −20° C. VX-944, and MPA (Sigma-Aldrich or Calbiochem), were dissolved in DMSO at a concentration of 20 mM and stored at −20° C.
Peripheral blood mononuclear cells (PBMCs) and T cells were isolated as follows: Human venous blood was drawn from healthy volunteers using heparin as an anti-coagulant. PBMCs were isolated from blood by centrifugation over Ficoll-paque gradient or CPT tubes (Becton-Dickinson, Calif.), using standard conditions. PBMCs were harvested, washed and resuspended in complete RPMI, counted and diluted to 1×10^6 cells/ml.
In order to monitor PBMC proliferation assay, human PBMC derived T cells (5×10^4 cells/well), were added to 96-well plates. PHA was added up to a final concentration of 10-20 μg/mL per well for stimulating T cells. The mitogen SPAS was used at a final concentration of 2 mg/mL. DMSO was maintained at a final concentration of 0.1%.

HL-60 cells = experiment: Affymetrix array transcript profiling in HL-60 cells, 14 h (early) and 30 h (late); type: cell-based, human
Method: The above agents were tested in HL-60 cells at a concentration of 500 nM for VX-944 and 1000 nM for MPA or with 0.1% DMSO as the vehicle control. The cells were harvested at 14 or 30 hours post addition of compound or vehicle. Briefly, the culture medium was removed at the appropriate time-points and the cells washed with PBS. The cells were then harvested, and pelleted by-gentle centrifugation. The supernatant was discarded and the pellets snap-frozen on an ethanol/dry-ice slurry. RNA was isolated from cells by using a RNEasy kit from Qiagen. RNAs were quality controlled using the Agilent 2100 Bioanalyzer to determine the presence of RNAs.
Data from the arrays corresponding to VX-944 and MPA at the two time-points—14 hours (Early) and 30 hours (Late) were analyzed using Spotfire™, microarray data analysis software. Some of the data analysis parameters used are outlined below:
a) All the arrays were normalized by using trimmed means, with a 5% exclusion limit
b) Only genes present in at least 5 of the 6 chips used for the analyses were included in the genesets
c) Only statistically significant genes (ANOVA, p<0.05) were included in the final analyses to generate gene lists.
At the late (30 h) time-point, 335 genes were identified as overlapping between the VX-944 and MPA datasets. […] With MPA 66 genes are in common between the two time-points. As to a comparison between the two data sets, of the 102 genes modulated by VX-944 and the 66 genes modulated by MPA, 43 genes […]. To add additional value to the gene lists and provide additional information to the investigator, the genes underlying each of these expression patterns was queried against publicly available databases. These databases included Locus Link, Gene Cards, KEGG, GO annotations, OMIM, PubMed. The information gathered from such an analysis is organized below in data tables.

[1] = system: genes responsive to IMPDH inhibition; experiment: Gene chip analysis of genes responsive to IMPDH inhibition (18 gene chips, 8793 genes); type: cell-based; conditions: for No. genes modulated: of 3421 genes common to all 18 gene chips
Text: The present invention is directed to methods and compositions for using biomarkers that are responsive to changes in IMPDH activity levels.

PBMC cells = experiment: Gene expression changes in resting and PHA-stimulated (proliferating) PBMCs treated with VX-944; type: cell-based, human; conditions: proliferating lymphocytes; out of 67 genes
both IMPDH isozymes = conditions: cited from earlier work
[2] = system: human peripheral lymphocytes; conditions: cited from earlier work
[3] = read-out: PBMCs PHA-T cell IC50
[4] = read-out: PHA-T cell IC50 in the presence of guanosine
[5] = common to early (14 h) and late (30 h)
[6] = treated vs. DMSO, early (14 h), VX-944 500 nM, MPA 1000 nM

SMILES	Ratio of PHA-T cell IC50 in the presence and absence of guanosine (PBMCs PHA-T cell)	IC50 (PBMCs PHA-T cell; [3])	IC50 (PBMCs PHA-T cell; [4])	Number of Genes Downregulated (HL-60 cells; [5])	Number of Genes Total (HL-60 cells; [5])	Number of Genes Upregulated (HL-60 cells; [5])	Number of Genes Downregulated (HL-60 cells; treated vs. DMSO, early (14 h))	Number of Genes Total (HL-60 cells; treated vs. DMSO, early (14 h))	Number of Genes Upregulated (HL-60 cells; [6])	Number of Genes Downregulated (HL-60 cells; treated vs. DMSO, late (30 h))	Number of Genes Total (HL-60 cells; treated vs. DMSO, late (30 h))	Number of Genes Upregulated (HL-60 cells; treated vs. DMSO, late (30 h))	No. genes modulated: Decreased [1]	No. genes modulated: Increased [1]	No. genes modulated [1]	also measured
COc1c(C)c2c(c(O)c1C/C=C(\C)CCC(=O)O)C(=O)OC2 [MPA, Mycophenolic acid]	>224	89 nM	> 20000 nM	0	66	66	0	105	105	560	1162	602	36	39	75	FOLD CHANGE (MPA, EARLY) (HL-60 cells; gene ALG6): 1.5; FOLD CHANGE (MPA, EARLY) (HL-60 cells; gene C6orf18): 1.5; FOLD CHANGE (MPA, EARLY) (HL-60 cells; gene C8orf2): 1.5; FOLD CHANGE (MPA, EARLY) (HL-60 cells; gene C21orf4): 1.5; FOLD CHANGE (MPA, EARLY) (HL-60 cells; gene CLECSF5): 1.5; FOLD CHANGE (MPA, EARLY) (HL-60 cells; gene FBXO5): 1.6; FOLD CHANGE (MPA, EARLY) (HL-60 cells; gene FLJ10852 (HIP14L)): 1.5; FOLD CHANGE (MPA, EARLY) (HL-60 cells; gene KLHL2): 1.6; FOLD CHANGE (MPA, EARLY) (HL-60 cells; gene MGC13024): 1.5; FOLD CHANGE (MPA, EARLY) (HL-60 cells; gene MLC-B (MRLC2)): 1.8; FOLD CHANGE (MPA, EARLY) (HL-60 cells; gene RAGD): 1.5; FOLD CHANGE (MPA, EARLY) (HL-60 cells; gene RPAC2 (POLR1D)): 1.5; FOLD CHANGE (MPA, EARLY) (HL-60 cells; gene SNX10): 1.5; FOLD CHANGE (MPA, EARLY) (HL-60 cells; gene TMEM8): 1.7; FOLD CHANGE (MPA, EARLY) (HL-60 cells; gene TOPK): 1.5
COc1cc(NC(=O)Nc2cccc(CNC(=O)O[C@H]3CCOC3)c2)ccc1-c1cnco1 [VX-497]	62	105 nM	6500 nM													
CC[C@H](CC#N)OC(=O)N[C@@H](C)c1cccc(NC(=O)Nc2ccc(-c3cnco3)c(OC)c2)c1 [VX-944]	373	21 nM	7800 nM	0	102	102	119	291	172	0	434	434	60	46	106	potency in cell assays relative to MPA (PBMCs PHA-T cell; VX-944 vs MPA): 3-4 fold; number of genes implicated in cancers that are down-regulated (PBMC cells): 4; Ki (both IMPDH isozymes): 7 to 10 nM; inhibition of lymphocyte proliferation on addition of guanosine ([2]; 50 μM guanosine): alleviated; potency in inhibiting lymphocyte proliferation compared with other IMPDH inhibitors ([2]; stimulated with either T or B-cell mitogens): more potent than VX-497 or MPA; IC50 ([2]; stimulated with either T or B-cell mitogens, read-out: IC50, inhibition of proliferation of human peripheral lymphocytes): 20 to 100 nM
